Experimental data taken from patent publication US7977434B2, “Polymeric hydrophobic aminonitrile quats used for bleach activation” (BASF Aktiengesellschaft, priority 2005, dated 2011).

What was measured:
Conditions in all cases: 25° C., 1% bleach activator, 15% by weight sodium percarbonate in color laundry detergent, 30 min wash
[1] = Launderometer bleaching test, red wine stain
Procedure: (§1) Standard test in a launderometer with 5% activator addition at 25° C. and 50° C. of tea-, red wine-, grass- and curry-stained fabric. In addition, the removal of triolein and olive oil stains from cotton fabric is investigated. To this end, triolein and olive oil are dyed with 0.1% Sudan red 7 B (=Solvent Red 19). This dye is dissolved and homogenized beforehand with gentle warming. The preparation is effected by adding dropwise with a pipette, in the course of which the test fabric is stretched. 0.1 g of the solution is added dropwise and spreads on the fabric overnight. All test specimens are determined twice.
(§2) To this end, 15% by weight of bleach (sodium percarbonate) and 1.2 and 5% by weight of the appropriate activator are mixed into a commercial color laundry detergent which is homogenized in dry form.
The bleaching experiments in the launderometer are evaluated by reflectance measurement and calculation of the bleaching action on the bleachable stains used (tea, red wine, grass, curry, triolein and olive oil). The standard deviation of the reflectance R is <1%. […]
Mixing of stock hardness 1 (Ca^+++Mg^++) and stock hardness 2 (NaHCO3), both 0.8 mol/l in each case. […] The water hardness is determined by using Titriplex solution. • Stock hardness 1 94.09 g of calcium chloride 2H2O and 32.53 g of magnesium chloride. […]

[2] = Launderometer bleaching test, tea stain
Procedure: as §1, with “Standard test in a launderometer with 5% activator addition at 25° C. and 50° C. of tea-, red wine-, grass- and curry-stained fabric.” left out
(§3) The bleaching experiments in the launderometer are evaluated by reflectance measurement and calculation of the bleaching action on the bleachable stains used (tea, red wine, grass, curry, triolein and olive oil).
(§4) Commercially unavailable stains such as tea, chlorophyll were premeasured individually.
(§5) Mixing of stock hardness 1 (Ca^+++Mg^++) and stock hardness 2 (NaHCO3), both 0.8 mol/l in each case. Hard water is tested before use. The water hardness is determined by using Titriplex solution. • Stock hardness 1 94.09 g of calcium chloride 2H2O and 32.53 g of magnesium chloride. […]

[3] = Launderometer bleaching test, grass stain
Procedure: as §1, with “Standard test in a launderometer with 5% activator addition at 25° C. and 50° C. of tea-, red wine-, grass- and curry-stained fabric.” left out
as §3, §4, §5

[4] = Launderometer bleaching test, curry stain
Procedure: as §1, §2
(§6) The bleaching experiments in the launderometer are evaluated by reflectance measurement and calculation of the bleaching action on the bleachable stains used (tea, red wine, grass, curry, triolein and olive oil). The standard deviation of the reflectance R is <1%.
as §5

[5] = Launderometer test, removal of triolein stain dyed with Sudan red 7 B
Procedure: as §1, §2, §6, §5

[6] = Launderometer test, removal of olive oil stain dyed with Sudan red 7 B
Procedure: as §1, §2, §6, §5

Structure (SMILES): CC(=O)N(CCN(C(C)=O)C(C)=O)C(C)=O [TAED, tetraacetylethylenediamine]
- reflectance, Red wine [1]: 58.4%
- reflectance, Tea [2]: 34.5%
- reflectance, Grass [3]: 39.2%
- reflectance, Curry [4]: 65.1%
- reflectance, Triolein [5]: 42.6%
- reflectance, Olive oil [6]: 40.0%

Structure (SMILES): C[N+]1(CC#N)CCOCC1.O=S(=O)([O-])O [BMG, methylmorpholinioacetonitrile hydrogensulfate]
- reflectance, Red wine [1]: 61.8%
- reflectance, Tea [2]: 48.5%
- reflectance, Grass [3]: 40.1%
- reflectance, Curry [4]: 69.2%
- reflectance, Triolein [5]: 42.2%
- reflectance, Olive oil [6]: 39.9%
